Results: patent publication US9388143B2, “Polymorph of N-(3-{[(2Z)-3-[(2-chloro-5-methoxyphenyl)amino]quinoxalin-2(1H)-ylidene]sulfamoyl}phenyl)-2-methylalaninamide” (Sanofi, priority 2012, dated 2016)

How the values were obtained:
Type in all cases: physicochemical
[1] = Differential scanning calorimetry, relative stability of polymorphs A and E by the rules of Burger; details: from DSC melting point and enthalpy of fusion
[2] = Stability of polymorph E in competition with polymorph A (slurry in solvent, X-ray powder diffraction)
Description: (§1) To verify the stability of polymorph E, trials were performed at the laboratory scale, by putting polymorph E in competition with compound (I) (polymorph A) and with the THF solvated form in mixtures of solvent.
Polymorph E was first put in competition with compound (I) (polymorph A) (mixture 50/50, w/w) in ethanol/THF 80/20% v/v. This stability test was performed at ambient temperature under magnetic stirring for 24 hours, then the solid was filtered, dried, then analyzed by X-ray powder diffraction. […] Similar experiments were performed in ethanol 100% at various concentrations.
Polymorph E stability also was tested as a suspension in 100% ethanol at room temperature, seeded with compound (I) (polymorph A).

[3] = Stability of polymorph E in competition with the THF solvated form (slurry in THF/ethanol)
Description: as §1
Polymorph E was also put in competition with the solvated form of compound (I) obtained in from THF. A mixture of the THF solvated form and polymorph E (50/50, w/w) was left under stirring for 24 hours in 40V of THF/ethanol (50/50, v/v) at room temperature.

[4] = under the competition conditions described

Question: For `COc1ccc(Cl)c(Nc2nc3ccccc3nc2NS(=O)(=O)c2cccc(NC(=O)C(C)(C)N)c2)c1` [Polymorph E, N-(3-{[(2Z)-3-[(2-chloro-5-methoxyphenyl)amino]quinoxalin-2(1H)-ylidene]sulfamoyl}phenyl)-2-methylalaninamide], which “thermodynamic stability relationship between polymorphs A and E (monotropic)” value [1] is on record?
Answer: Its value is “the more stable one”.

Question: And the “solid form found after competition” value ([2]; competition with polymorph A, ethanol 100%, various concentrations)?
Answer: Its value is “Polymorph E was always obtained”.

Question: What about the “solid form found by X-ray powder diffraction after competition” value ([2]; mixture 50/50 w/w with polymorph A, ethanol/THF 80/20% v/v, ambient temperature, magnetic stirring, 24 hours) of the same compound?
Answer: The value was “Polymorph E was obtained”.

Question: What about the “solid form found by X-ray powder diffraction after seeding” value ([2]; suspension in 100% ethanol, room temperature, seeded with polymorph A, 24 hours) of the same compound?
Answer: The value was “only polymorph E”.

Question: And the “relative stability versus polymorph A” value [2, 4]?
Answer: Its value is “more stable than the polymorph A of compound (I)”.

Question: And the “solid form present at the end of competition” value ([3]; mixture 50/50 w/w with THF solvated form, 40V THF/ethanol 50/50 v/v, room temperature, stirring 24 hours)?
Answer: The value was “only polymorph E was present”.

Question: What about the “relative stability versus THF-solvated form” value [3, 4] of the same compound?
Answer: The value was “more stable than the THF-solvated form”.
